Assay results as given in patent US9265253B2, “Use of macrocyclic picolinamides as fungicides” (DOW AGROSCIENCES LLC, priority 2013, dated 2016).
Where two headings read alike, the source gives them in different places.

Legend:
Assay type in all cases: in vivo
[1] = tested on: Uncinula necator; assay: Grape Powdery Mildew (UNCINE) disease control; conditions: Erysiphe necator, topical, 24 h, 1 Day Protectant, read-out: Disease Control UNCINE 1 DP
Description: Technical grades of materials were dissolved in acetone, which were then mixed with nine volumes of water containing 110 ppm Triton X-100. The fungicide solutions were applied onto wheat seedlings using an automated booth sprayer to run-off. All sprayed plants were allowed to air dry prior to further handling. All fungicides were evaluated using the aforementioned method for their activity vs. all target diseases. Wheat leaf blotch and brown rust activity were also evaluated using track spray applications, in which case the fungicides were formulated as EC formulations, containing 0.1% Trycol 5941 in the spray solutions. Wheat plants (variety Yuma) were grown from seed in a greenhouse in 50% mineral soil/50% soil-less Metro mix until the first leaf was fully emerged, with 7-10 seedlings per pot. These plants were inoculated with an aqueous spore suspension of Septoria tritici either prior to or after fungicide treatments. After inoculation the plants were kept in 100% relative humidity (one day in a dark dew chamber followed by two to three days in a lighted dew chamber at 20° C.) to permit spores to germinate and infect the leaf. The plants were then transferred to a greenhouse set at 20° C. for disease to develop. When disease symptoms were fully expressed on the 1st leaves of untreated plants, infection levels were assessed on a scale of 0 to 100 percent disease severity. Percent disease control was calculated using the ratio of disease severity on treated plants relative to untreated plants. Grape seedlings (variety Carignane) were grown in soil-less Metro mix, with one plant per pot, and used in the test when approximately one month old. Plants were inoculated 24 hr after fungicide treatment by shaking spores from infected leaves over test plants. Plants were maintained in a greenhouse set at 20° C. until disease was fully developed. Fungicide formulation, application and disease assessment on the sprayed leaves followed the procedures as described in the Example A.

[2] = tested on: Phakopsora pachyrhizi; assay: Asian Soybean Rust (PHAKPA) disease control; conditions: Phakopsora pachyrhizi, topical
Description: Technical grades of materials were dissolved in acetone, which were then mixed with nine volumes of water containing 0.011% Tween 20. The fungicide solutions were applied onto soybean seedlings using an automated booth sprayer to run-off. All sprayed plants were allowed to air dry prior to further handling.
Soybean plants (variety Williams 82) were grown in soil-less Metro mix, with one plant per pot. Two weeks old seedlings were used for testing. Plants were inoculated either 3 days prior to or 1 day after fungicide treatments. Plants were incubated for 24 h in a dark dew room at 22° C. and 100% RH then transferred to a growth room at 23° C. for disease to develop. Disease severity was assessed on the sprayed leaves.

[3] = tested on: Blumeria graminis f. sp. hordei; Synonym: Erysiphe graminis f. sp. hordei; assay: Barley Powdery Mildew (ERYSGH) disease control; conditions: Blumeria graminis, 24 h, 1 Day Protectant, read-out: Disease Control ERYSGH 1 DP
Description: Technical grades of materials were dissolved in acetone, which were then mixed with nine volumes of water containing 110 ppm Triton X-100. The fungicide solutions were applied onto wheat seedlings using an automated booth sprayer to run-off. All sprayed plants were allowed to air dry prior to further handling. All fungicides were evaluated using the aforementioned method for their activity vs. all target diseases. Wheat leaf blotch and brown rust activity were also evaluated using track spray applications, in which case the fungicides were formulated as EC formulations, containing 0.1% Trycol 5941 in the spray solutions. Wheat plants (variety Yuma) were grown from seed in a greenhouse in 50% mineral soil/50% soil-less Metro mix until the first leaf was fully emerged, with 7-10 seedlings per pot. These plants were inoculated with an aqueous spore suspension of Septoria tritici either prior to or after fungicide treatments. After inoculation the plants were kept in 100% relative humidity (one day in a dark dew chamber followed by two to three days in a lighted dew chamber at 20° C.) to permit spores to germinate and infect the leaf. The plants were then transferred to a greenhouse set at 20° C. for disease to develop. When disease symptoms were fully expressed on the 1st leaves of untreated plants, infection levels were assessed on a scale of 0 to 100 percent disease severity. Percent disease control was calculated using the ratio of disease severity on treated plants relative to untreated plants. Barley seedlings (variety Harrington) were propagated in soil-less Metro mix, with each pot having 8 to 12 plants, and used in the test when first leaf was fully emerged. Test plants were inoculated by dusting with infected stock plants 24 hr after fungicide treatments. After inoculation the plants were kept in a greenhouse set at 20° C. for disease to develop. Fungicide formulation, application and disease assessment on the sprayed leaves followed the procedures as described in the Example A.

[4] = 24 h, 1 Day Protectant, read-out: Disease Control PHAKPA 1DP
[5] = 72 h, 3 Day Curative, read-out: Disease Control PHAKPA 3DC

| SMILES | pest or weed control at 100 ppm [1] | pest or weed control at 25 ppm [2, 4] | pest or weed control at 25 ppm [2, 5] | pest or weed control at 100 ppm [3] |
| --- | --- | --- | --- | --- |
| COc1ccnc(C(=O)N[C@H]2CCC[C@H](CC(F)F)[C@@H](Oc3ccccc3)[C@H](C)OC2=O)c1OC(C)=O [Compound F82] | 0 to 80% | 80 to 100% | 80 to 100% | 0 to 80% |
| C=C[C@H]1CCC[C@H](NC(=O)c2nccc(OC)c2OC(C)=O)C(=O)O[C@@H](C)[C@@H]1Oc1ccccc1 [Compound F86] | 80 to 100% | 80 to 100% | 0 to 80% | 0 to 80% |
| COc1ccnc(C(=O)N[C@H]2CCC[C@H](Cc3ccc(F)cc3)[C@@H](OCC(C)C)[C@H](C)OC2=O)c1OCOC(C)=O [Compound F102] | 0 to 80% |  |  | 0 to 80% |
| COc1ccnc(C(=O)N[C@H]2CCC[C@H](CCBr)[C@@H](Oc3ccccc3)[C@H](C)OC2=O)c1OC(C)=O [Compound F80] | 0 to 80% | 80 to 100% | 0 to 80% | 0 to 80% |
| COc1ccnc(C(=O)N[C@H]2CCC[C@H](Cc3ccccc3)[C@@H](Oc3ccccc3)[C@H](C)OC2=O)c1OCOC(C)=O [Compound F108] | 80 to 100% |  |  | 0 to 80% |
| CCOCC(=O)OCOc1c(OC)ccnc1C(=O)N[C@H]1CCC[C@H](Cc2ccc(F)cc2F)[C@@H](OC(=O)c2ccco2)[C@H](C)OC1=O [Compound F193] | 0 to 80% | 0 to 80% | 0 to 80% | 0 to 80% |
| COc1ccnc(C(=O)N[C@H]2CCC[C@H](Cc3ccc(F)cc3F)[C@@H](OC(=O)c3ccco3)[C@H](C)OC2=O)c1OCOC(=O)C(C)C [Compound F157] | 80 to 100% | 0 to 80% |  |  |
| COc1ccnc(C(=O)N[C@H]2CCC[C@H](CC(F)F)[C@@H](Oc3ccccc3)[C@H](C)OC2=O)c1OCOC(C)=O [Compound F138] | 0 to 80% | 80 to 100% | 80 to 100% | 0 to 80% |
| CCOCC(=O)OCOc1c(OC)ccnc1C(=O)N[C@H]1CCC[C@H](Cc2ccc(F)cc2)[C@@H](OCC(C)C)[C@H](C)OC1=O [Compound F168] | 80 to 100% | 80 to 100% | 0 to 80% | 80 to 100% |
| C=C[C@H]1CCC[C@H](NC(=O)c2nccc(OC)c2OCOC(C)=O)C(=O)O[C@@H](C)[C@@H]1Oc1ccccc1 [Compound F146] | 80 to 100% | 80 to 100% | 80 to 100% | 0 to 80% |
| COc1ccnc(C(=O)N[C@H]2CCC[C@H](Cc3ccccc3)[C@@H](OC3CCCC3)[C@H](C)OC2=O)c1OCOC(C)=O [Compound F110] | 80 to 100% |  |  | 80 to 100% |
